Measurements reported in US20220242870A1, “HETEROCYCLE-FUSED PYRIMIDINE DERIVATIVE AND USE THEREOF” (VORONOI Inc., priority 2019, published 2022).

Key:
MCF-7 cells = assay: Breast cancer cell line proliferation inhibitory activity (CellTiter-Glo 2.0); format: cell-based; details: Homo sapiens, MCF7, 120 hours
Summary of the method: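 MCF-7 cells exposed to a 12-point, 3-fold dilution series (final 0.00005–10 μM) for 120 h at 37 °C. Viability read by CellTiter-Glo 2.0 luminescence, expressed as percent of vehicle-treated cells. GI50 (nM) derived from the curves.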

MV4-11 cells = assay: AML cell proliferation inhibitory activity (CellTiter-Glo); format: cell-based; details: Homo sapiens, 72 hours
Summary of the method: (§1)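 RS4;11 and MV4-11 cells in RPMI-1640 with 10% FBS, seeded 24 h before treatment, then exposed 72 h to 12 three-fold dilutions (0.3 nM–50 μM final). Viability by CellTiter-Glo luminescence relative to solvent control; GI50 from triplicate experiments.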

RS4;11 cells = assay: as above; format: cell-based; details: Homo sapiens, 72 hours
Summary of the method: as §1

human GST-HPK1 (1-346) = target: T1, human GST-HPK1 (1-346) (Homo sapiens, UniProt Q92918); assay: HPK1 enzyme inhibitory ability (ADP-Glo kinase assay); format: biochemical; details: human GST-HPK1 3 ng, ATP 3 uM, 25° C. 2 hours
T1 construct: purified human GST-HPK1 (1-346, Signalchem) enzyme; purchased Signalchem
T1 sequence (Q92918 1-346): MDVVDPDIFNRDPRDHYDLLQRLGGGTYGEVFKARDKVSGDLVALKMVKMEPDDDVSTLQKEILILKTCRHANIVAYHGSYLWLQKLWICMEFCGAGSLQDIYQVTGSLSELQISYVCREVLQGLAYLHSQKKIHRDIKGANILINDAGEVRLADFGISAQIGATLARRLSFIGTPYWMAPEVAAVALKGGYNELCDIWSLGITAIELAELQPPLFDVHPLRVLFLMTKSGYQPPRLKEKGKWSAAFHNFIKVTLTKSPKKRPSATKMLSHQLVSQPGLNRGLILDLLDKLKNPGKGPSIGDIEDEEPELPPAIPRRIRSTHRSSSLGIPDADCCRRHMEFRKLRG
Summary of the method: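 Human GST-HPK1(1-346), 3 ng, reacted with 3 uM ATP and specific substrate in 40 mM Tris-HCl pH 7.4, 20 mM MgCl2, 0.5 mg/mL BSA, 50 uM DTT for 2 h at 25° C. ADP-Glo luminescence read; IC50 (nM) relative to untreated solvent control.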

human FLT3-ITD enzyme = target: T2, human FLT3-ITD enzyme (Homo sapiens, UniProt P36888); assay: FLT3 enzyme inhibitory ability (ADP-Glo kinase assay); format: biochemical; details: human FLT3-ITD enzyme 10 ng, ATP 10 μM, 25° C. 1 hour
T2 sequence (P36888 1-993): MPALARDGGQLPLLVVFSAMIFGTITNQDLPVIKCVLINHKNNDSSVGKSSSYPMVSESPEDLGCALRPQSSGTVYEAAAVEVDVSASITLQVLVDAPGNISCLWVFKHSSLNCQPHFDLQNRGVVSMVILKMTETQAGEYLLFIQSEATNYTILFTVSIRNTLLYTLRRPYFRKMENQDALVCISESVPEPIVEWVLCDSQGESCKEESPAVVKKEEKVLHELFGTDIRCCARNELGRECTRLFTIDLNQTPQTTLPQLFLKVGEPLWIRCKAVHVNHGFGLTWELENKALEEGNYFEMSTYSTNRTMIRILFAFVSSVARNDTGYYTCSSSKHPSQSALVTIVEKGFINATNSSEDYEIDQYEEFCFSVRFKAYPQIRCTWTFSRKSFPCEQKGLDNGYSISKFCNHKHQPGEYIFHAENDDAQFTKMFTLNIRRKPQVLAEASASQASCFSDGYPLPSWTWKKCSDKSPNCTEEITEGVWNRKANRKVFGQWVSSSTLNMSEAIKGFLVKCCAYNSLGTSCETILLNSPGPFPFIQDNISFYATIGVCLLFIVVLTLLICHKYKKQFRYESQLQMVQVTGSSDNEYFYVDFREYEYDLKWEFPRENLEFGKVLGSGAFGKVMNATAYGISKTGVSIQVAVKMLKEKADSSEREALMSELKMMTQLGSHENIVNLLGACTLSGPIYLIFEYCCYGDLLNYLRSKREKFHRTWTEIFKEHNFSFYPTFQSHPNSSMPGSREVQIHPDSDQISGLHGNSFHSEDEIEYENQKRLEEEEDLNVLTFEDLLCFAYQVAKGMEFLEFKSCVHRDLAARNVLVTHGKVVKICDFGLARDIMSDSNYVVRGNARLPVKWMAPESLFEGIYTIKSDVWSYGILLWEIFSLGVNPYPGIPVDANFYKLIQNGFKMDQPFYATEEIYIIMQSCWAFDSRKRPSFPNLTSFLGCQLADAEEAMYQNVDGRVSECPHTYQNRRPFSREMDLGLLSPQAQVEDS
Summary of the method: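 Purified human FLT3-ITD (10 ng) with 10 μM ATP and specific substrate in 40 mM Tris-HCl pH 7.4, 20 mM MgCl2, 0.5 mg/mL BSA, 50 μM DTT, 1 h at 25 °C. ADP formation read by ADP-Glo luminescence; IC50 (nM) versus solvent-treated control.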

CDK6 cyclin D1 = target: T3, CDK6 cyclin D1 (Homo sapiens, UniProt Q00534); assay: CDK6 enzyme inhibitory ability (Reaction Biology); format: biochemical; details: measured in Reaction Biology (USA)
T3 construct: purchased Reaction Biology (USA), contract assay
T3 sequence (Q00534 whole entry): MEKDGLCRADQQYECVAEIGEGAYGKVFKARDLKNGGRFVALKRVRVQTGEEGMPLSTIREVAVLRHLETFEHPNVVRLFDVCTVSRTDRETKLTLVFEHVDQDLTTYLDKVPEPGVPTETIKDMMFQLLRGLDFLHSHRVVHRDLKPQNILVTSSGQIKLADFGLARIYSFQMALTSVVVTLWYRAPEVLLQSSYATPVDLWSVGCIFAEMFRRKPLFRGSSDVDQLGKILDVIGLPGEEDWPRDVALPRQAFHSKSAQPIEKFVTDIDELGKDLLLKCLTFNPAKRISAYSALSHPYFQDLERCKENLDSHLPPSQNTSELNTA
T3 sequence (P24385 whole entry partner): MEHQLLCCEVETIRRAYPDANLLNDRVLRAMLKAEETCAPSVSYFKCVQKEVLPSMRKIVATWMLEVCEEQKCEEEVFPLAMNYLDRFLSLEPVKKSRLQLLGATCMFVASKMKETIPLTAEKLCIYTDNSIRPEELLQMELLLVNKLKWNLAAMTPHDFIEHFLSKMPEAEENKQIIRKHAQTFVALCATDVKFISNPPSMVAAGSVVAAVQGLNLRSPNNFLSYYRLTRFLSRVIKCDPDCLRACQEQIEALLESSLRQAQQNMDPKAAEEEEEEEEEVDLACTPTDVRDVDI
Experimental: (§2) In order to evaluate the CDK4 and CDK6 enzyme inhibitory activities of the example compounds according to the present invention, IC5O (nM) was measured for the CDK4 cyclin D1 and CDK6 cyclin D1 enzymes in Reaction Biology (USA), and the results were shown in Table 3 below.

CDK4-cyclinD1 = CDK4-cyclinD1 (Homo sapiens, UniProt P11802); assay: CDK4 enzyme inhibitory ability (Reaction Biology); format: biochemical; design: purchased Reaction Biology (USA), contract assay; details: measured in Reaction Biology (USA)
Sequence of CDK4-cyclinD1 (P11802 whole entry): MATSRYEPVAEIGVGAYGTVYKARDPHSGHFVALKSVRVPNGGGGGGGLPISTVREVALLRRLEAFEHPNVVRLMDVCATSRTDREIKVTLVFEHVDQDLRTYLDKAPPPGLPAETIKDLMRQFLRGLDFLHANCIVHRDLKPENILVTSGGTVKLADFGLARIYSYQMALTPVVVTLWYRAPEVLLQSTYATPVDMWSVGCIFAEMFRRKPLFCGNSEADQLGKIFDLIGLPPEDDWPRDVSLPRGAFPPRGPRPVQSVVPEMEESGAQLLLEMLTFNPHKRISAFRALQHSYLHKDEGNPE
Sequence of CDK4-cyclinD1 (P24385 whole entry partner): as the sequence (P24385 whole entry partner) above
Experimental: as §2

SMILES: CCN1CCN(C2CCN(c3ccc(Nc4nc(N5N=CCC5c5ccccc5)c5sccc5n4)cc3)CC2)CC1 (stereo not drawn) [Example 37, N-(4-(4-(4-ethylpiperazin-1-yl)piperidin-1-yl)phenyl)-4-(5-phenyl-4,5-dihydro-1H-pyrazol-1-yl)thieno[3,2-d]pyrimidin-2-amine]
- GI50 (MCF-7 cells): > 500 nM
- GI50 (MV4-11 cells): ≥ 250 nM
- GI50 (RS4;11 cells): > 500 nM
- IC50 (human GST-HPK1 (1-346)): > 500 nM
- IC50 (human FLT3-ITD enzyme): 250 to 500 nM

SMILES: CN(C)C1CCN(c2ccc(Nc3nc(N4N=CCC4c4ccccc4)c4sccc4n3)cc2)CC1 (stereo not drawn) [Example 38, N-(4-(4-(dimethylamino)piperidin-1-yl)phenyl)-4-(5-phenyl-4,5-dihydro-1H-pyrazol-1-yl)thieno[3,2-d]pyrimidin-2-amine]
- GI50 (MCF-7 cells): > 500 nM
- GI50 (MV4-11 cells): ≥ 250 nM
- GI50 (RS4;11 cells): > 500 nM
- IC50 (human GST-HPK1 (1-346)): > 500 nM
- IC50 (human FLT3-ITD enzyme): ≥ 250 nM

SMILES: CN(C)[C@@H]1CCN(c2ccc(Nc3nc(N4N=CCC4c4ccccc4)c4sccc4n3)cc2)C1 (stereo partly drawn) [Example 43, N-(4-((R)-3-(dimethylamino)pyrrolidin-1-yl)phenyl)-4-(5-phenyl-4,5-dihydro-1H-pyrazol-1-yl)thieno[3,2-d]pyrimidin-2-amine]
- GI50 (MCF-7 cells): > 500 nM
- GI50 (MV4-11 cells): ≥ 250 nM
- GI50 (RS4;11 cells): > 500 nM
- IC50 (human GST-HPK1 (1-346)): > 500 nM
- IC50 (human FLT3-ITD enzyme): 250 to 500 nM

SMILES: CN(C)[C@H]1CCN(c2ccc(Nc3nc(N4N=CCC4c4ccccc4)c4sccc4n3)cc2)C1 (stereo partly drawn) [Example 44, N-(4-((S)-3-(dimethylamino)pyrrolidin-1-yl)phenyl)-4-(5-phenyl-4,5-dihydro-1H-pyrazol-1-yl)thieno[3,2-d]pyrimidin-2-amine]
- GI50 (MCF-7 cells): > 500 nM
- GI50 (MV4-11 cells): ≥ 250 nM
- GI50 (RS4;11 cells): > 500 nM
- IC50 (human GST-HPK1 (1-346)): > 500 nM
- IC50 (human FLT3-ITD enzyme): > 500 nM

SMILES: CCN(CC)CCOc1ccc(Nc2nc(N3N=CCC3c3ccccc3)c3sccc3n2)cc1 (stereo not drawn) [Example 45, N-(4-(2-(diethylamino)ethoxy)phenyl)-4-(5-phenyl-4,5-dihydro-1H-pyrazol-1-yl)thieno[3,2-d]pyrimidin-2-amine]
- GI50 (MCF-7 cells): > 500 nM
- GI50 (MV4-11 cells): 250 to 500 nM
- GI50 (RS4;11 cells): > 500 nM
- IC50 (human GST-HPK1 (1-346)): > 500 nM
- IC50 (human FLT3-ITD enzyme): 250 to 500 nM

SMILES: CCN(CC)CCCOc1ccc(Nc2nc(N3N=CCC3c3ccccc3)c3sccc3n2)cc1 (stereo not drawn) [Example 47, N-(4-(3-(diethylamino)propoxy)phenyl)-4-(5-phenyl-4,5-dihydro-1H-pyrazol-1-yl)thieno[3,2-d]pyrimidin-2-amine]
- GI50 (MCF-7 cells): > 500 nM
- GI50 (MV4-11 cells): ≥ 250 nM
- GI50 (RS4;11 cells): > 500 nM
- IC50 (human GST-HPK1 (1-346)): > 500 nM
- IC50 (human FLT3-ITD enzyme): 250 to 500 nM

SMILES: CCN(CC)CCCOc1c(C)cc(Nc2nc(N3N=CCC3c3ccccc3)c3sccc3n2)cc1C (stereo not drawn) [Example 48, N-(4-(3-(diethylamino)propoxy)-3,5-dimethylphenyl)-4-(5-phenyl-4,5-dihydro-1H-pyrazol-1-yl)thieno[3,2-d]pyrimidin-2-amine]
- GI50 (MCF-7 cells): > 500 nM
- GI50 (MV4-11 cells): > 500 nM
- GI50 (RS4;11 cells): > 500 nM
- IC50 (human GST-HPK1 (1-346)): > 500 nM
- IC50 (human FLT3-ITD enzyme): > 500 nM

SMILES: CCN1CCN(c2ccc(Nc3nc(N4OCC[C@H]4c4ccccc4)c4cc[nH]c4n3)cc2)CC1 [Example 79, (S)-N-(4-(4-ethylpiperazin-1-yl)phenyl)-4-(3-phenylisoxazolidin-2-yl)-7H-pyrrolo[2,3-d]pyrimidin-2-amine]
- GI50 (MCF-7 cells): > 500 nM
- GI50 (MV4-11 cells): ≥ 250 nM
- GI50 (RS4;11 cells): > 500 nM
- IC50 (human GST-HPK1 (1-346)): ≥ 250 nM
- IC50 (human FLT3-ITD enzyme): 250 to 500 nM

SMILES: CN1CCN(C2CCN(c3ccc(Nc4nc(N5OCC[C@H]5c5ccccc5)c5cc[nH]c5n4)cc3)CC2)CC1 [Example 84, (S)-N-(4-(4-(4-methylpiperazin-1-yl)piperidin-1-yl)phenyl)-4-(3-phenylisoxazolidin-2-yl)-7H-pyrrolo[2,3-d]pyrimidin-2-amine]
- GI50 (MCF-7 cells): > 500 nM
- GI50 (MV4-11 cells): ≥ 250 nM
- GI50 (RS4;11 cells): ≥ 250 nM
- IC50 (human GST-HPK1 (1-346)): ≥ 250 nM
- IC50 (human FLT3-ITD enzyme): ≥ 250 nM

SMILES: CN1CCN(c2ccc(Nc3nc(N4OCC[C@H]4c4ccccc4)c4c(Cl)c[nH]c4n3)cc2)CC1 [Example 116, (S)-5-chloro-N-(4-(4-methylpiperazin-1-yl)phenyl)-4-(3-phenylisoxazolidin-2-yl)-7H-pyrrolo[2,3-d]pyrimidin-2-amine]
- GI50 (MCF-7 cells): > 500 nM
- GI50 (MV4-11 cells): > 500 nM
- IC50 (CDK6 cyclin D1): ≥ 250 nM
- IC50 (human GST-HPK1 (1-346)): ≥ 250 nM
- IC50 (CDK4-cyclinD1): ≥ 250 nM
- IC50 (human FLT3-ITD enzyme): ≥ 250 nM

SMILES: CN1CCN(c2ccc(Nc3nc(N4OCC[C@H]4c4ccccc4)c4c(C#N)c[nH]c4n3)cc2)CC1 [Example 118, (S)-2-((4-(4-methylpiperazin-1-yl)phenyl)amino)-4-(3-phenylisoxazolidin-2-yl)-7H-pyrrolo[2,3-d]pyrimidine-5-carbonitrile]
- GI50 (MCF-7 cells): > 500 nM
- GI50 (MV4-11 cells): > 500 nM
- IC50 (CDK6 cyclin D1): ≥ 250 nM
- IC50 (human GST-HPK1 (1-346)): ≥ 250 nM
- IC50 (CDK4-cyclinD1): ≥ 250 nM
- IC50 (human FLT3-ITD enzyme): ≥ 250 nM

SMILES: CN1CCN(c2ccc(Nc3nc(N4OCC[C@H]4c4ccccc4)c4c(C(F)(F)F)c[nH]c4n3)cc2)CC1 [Example 123, (S)-N-(4-(4-methylpiperazin-1-yl)phenyl)-4-(3-phenylisoxazolidin-2-yl)-5-(trifluoromethyl)-7H-pyrrolo[2,3-d]pyrimidin-2-amine]
- GI50 (MCF-7 cells): > 500 nM
- GI50 (MV4-11 cells): > 500 nM
- IC50 (CDK6 cyclin D1): ≥ 250 nM
- IC50 (human GST-HPK1 (1-346)): > 500 nM
- IC50 (CDK4-cyclinD1): ≥ 250 nM
- IC50 (human FLT3-ITD enzyme): ≥ 250 nM
